In the experiment the target is EBI2 (Homo sapiens, UniProt P32249). Kind of experiment: Cell-based luminescent assay of EBI2 modulation (7a,25-OHC stimulated). The conditions noted are these: 7a,25-OHC final assay concentration 80 nM, 60 minute incubation. As for the experimental part: To assess EBI2 modulation, the compounds described herein were assayed in the following cell-based luminescent assay:
1) Plated 600 cells/well in 4 μL of assay media into columns 1-48 of a 1536-well assay plate, using a liquid dispenser.
2) Centrifuged plates at 1000 rpm for 1 minute and covered with lids.
3) Incubated overnight at 37° C., 100% relative humidity, 5% CO2.
1) Centrifuged compound plates containing compounds described herein at 500 rpm for 1 minute.
2) Added compounds into assay plate col 5-48 to final concentration 4-5 uM. Added matching amount of DMSO to positive and negative control wells in columns 1-4.
3) Dispensed 2 uL/well of assay media to columns 1-2 for the positive control wells.
4) Added 2 uL/well of 400 nM 7a,25-OHC (final assay concentration=80 nM) in assay media to columns 3-48 for the negative control and test compound wells.
5) Centrifuged plates at 1000 rpm for 1 minute and re-lid plates.
6) Incubated plates at 37° C., 100% relative humidity, 5% CO2 for 60 minutes.
7) Following 60 minute incubation, delivered 2.5 uL of Detection Reagent solution to each assay plate (Columns 1-48) using a liquid handler.
8) Centrifuged plates at 2000 rpm for 2 minutes and re-lid plates.
9) Incubated plates for 60 minutes at 25 degrees in the dark.
10) Read plates using the Viewlux, Envision or other suitable plate reader using a luminescence detection.
The experimental values were normalized by the difference between values from neutral and stimulator control wells in each plate. Then normalized data was corrected to remove systematic plate patterns due to artifacts such as dispensing tip issues etc.

IC50 data for 31 compounds are collected here from patent publication US10196369B2, “Spirocyclic EBI2 modulators” (Sanford Burnham Prebys Medical Discovery Institute, priority 2013, dated 2019).

Sequence of EBI2 (P32249 whole entry): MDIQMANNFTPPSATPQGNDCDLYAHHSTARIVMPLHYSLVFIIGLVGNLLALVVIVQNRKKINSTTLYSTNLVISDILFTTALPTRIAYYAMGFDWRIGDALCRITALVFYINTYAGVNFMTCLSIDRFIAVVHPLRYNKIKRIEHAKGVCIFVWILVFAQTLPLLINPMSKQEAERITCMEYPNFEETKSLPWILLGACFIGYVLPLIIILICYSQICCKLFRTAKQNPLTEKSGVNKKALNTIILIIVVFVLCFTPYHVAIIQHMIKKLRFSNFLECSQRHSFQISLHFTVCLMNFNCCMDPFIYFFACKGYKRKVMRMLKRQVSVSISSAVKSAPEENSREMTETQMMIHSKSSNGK

One may read the IC50 as the concentration that inhibits the measured activity by half. A high value points to lower potency. Turning to `COc1ccc(C(=O)N2CC3(CCN(C(=O)/C=C/c4ccc(Br)cc4)CC3)C2)cc1OC` [Compound C9, (2E)-1-{2-[(3,4-dimethoxyphenyl)carbonyl]-2,7-diazaspiro[3.5]non-7-yl}-3-(4-bromophenyl)prop-2-en-1-one], the IC50 is < 100 nM. With `O=C(C#Cc1ccc(F)cc1)N1CCC2(CC1)CN(C(=O)c1ccc(Cl)cc1)C2` [Compound C87, 1-{2-[(4-chlorophenyl)carbonyl]-2,7-diazaspiro[3.5]non-7-yl}-3-(4-fluorophenyl)prop-2-yn-1-one] the figure was < 100 nM; with `O=C(/C=C/c1ccc(Br)cc1)N1CC2(CCN(C(=O)c3ccc(Cl)cc3)CC2)C1` [Compound C19, (2E)-3-(4-bromophenyl)-1-{7-[(4-chlorophenyl)carbonyl]-2,7-diazaspiro[3.5]non-2-yl}prop-2-en-1-one], < 100 nM. Turning to `O=C(c1cc2cc(Cl)ccc2[nH]1)N1CCC2(CC1)CN(Cc1ccc(F)cc1)C2` [Compound C17, 5-chloroindol-2-yl 2-[(4-fluorophenyl)methyl]-2,7-diazaspiro[3.5]non-7-yl ketone], the concentration for half-maximal inhibition (IC50) is < 100 nM. With “bromophenyl)-1-{2-[(4-bromophenyl)carbonyl]-2,7-diazaspiro[3.5]non-7-yl}prop-2-yn-1-one [Compound C66]” the figure was 100 to 500 nM; with `COc1ccc(C(=O)N2CCC3(CC2)CN(C(=O)C#Cc2ccc(F)cc2)C3)cc1` [Compound C92, 3-(4-fluorophenyl)-1-{7-[(4-methoxyphenyl)carbonyl]-2,7-diazaspiro[3.5]non-2-yl}prop-2-yn-1-one], 100 to 500 nM; with `O=C(c1ccc(F)cc1)N1CCC2(CC1)CN(C(=O)c1cc3ccc(Cl)cc3[nH]1)C2` [Compound C55, 6-chloroindol-2-yl 7-[(4-fluorophenyl)carbonyl]-2,7-diazaspiro[3.5]non-2-yl ketone], 500 to 5000 nM. Next, `O=C(/C=C/c1ccc(Br)cc1)N1CC2(CCN(Cc3ccc(Cl)cc3)CC2)C1` [Compound C26, (2E)-3-(4-bromophenyl)-1-{7-[(4-chlorophenyl)methyl]-2,7-diazaspiro[3.5]non-2-yl}prop-2-en-1-one]: 100 to 500 nM; `O=C(c1cc2cc(Cl)ccc2[nH]1)N1CC2(CCN(Cc3ccc(OC(F)(F)F)cc3)CC2)C1` [Compound C36, 5-chloroindol-2-yl 7-{[4-(trifluoromethoxy)phenyl]methyl}-2,7-diazaspiro[3.5]non-2-yl ketone]: 100 to 500 nM. With `O=C(C#Cc1ccc(Cl)cc1)N1CCC2(CC1)CN(C(=O)c1ccc(Cl)cc1)C2` [Compound C76, 3-(4-chlorophenyl)-1-{2-[(4-chlorophenyl)carbonyl]-2,7-diazaspiro[3.5]non-7-yl}prop-2-yn-1-one] the figure was < 100 nM; with `O=C(c1ccc(Cl)cc1)N1CCC2(CC1)CN(C(=O)c1cc3ccc(Br)cc3[nH]1)C2` [Compound C59, 6-bromoindol-2-yl 7-[(4-chlorophenyl)carbonyl]-2,7-diazaspiro[3.5]non-2-yl ketone], 500 to 5000 nM. The compound `O=C(c1ccc(C(F)(F)F)cc1)N1CCC2(CC1)CN(C(=O)c1cc3ccc(Br)cc3[nH]1)C2` [Compound C58, 6-bromoindol-2-yl 7-{[4-(trifluoromethyl)phenyl]carbonyl}-2,7-diazaspiro[3.5]non-2-yl ketone] gave an IC50 of 500 to 5000 nM. With `O=C(/C=C/c1ccc(Br)cc1)N1CC2(CCN(C(=O)c3cccc(Br)c3)CC2)C1` [Compound C2, (2E)-3-(4-bromophenyl)-1-{7-[(3-bromophenyl)carbonyl]-2,7-diazaspiro[3.5]non-2-yl}prop-2-en-1-one] the figure was < 100 nM; with `O=C(C#Cc1ccc(Br)cc1)N1CC2(CCN(C(=O)c3ccc(Cl)cc3)CC2)C1` [Compound C64, 3-(4-bromophenyl)-1-{7-[(4-chlorophenyl)carbonyl]-2,7-diazaspiro[3.5]non-2-yl}prop-2-yn-1-one], 100 to 500 nM; with `O=C(C#Cc1ccc(Br)cc1)N1CCC2(CC1)CN(Cc1ccc(Br)cc1)C2` [Compound C72, 3-(4-bromophenyl)-1-{2-[(4-bromophenyl)methyl]-2,7-diazaspiro[3.5]non-7-yl}prop-2-yn-1-one], < 100 nM.

As to `O=C(/C=C/c1ccc(Cl)c(Cl)c1)N1CC2(CCN(Cc3ccc(F)cc3)CC2)C1` [Compound C32, (2E)-3-(3,4-dichlorophenyl)-1-{7-[(4-fluorophenyl)methyl]-2,7-diazaspiro[3.5]non-2-yl}prop-2-en-1-one], the concentration for half-maximal inhibition (IC50) lay within 100 to 500 nM. With `O=C(c1ccc(F)cc1)N1CCC2(CC1)CN(C(=O)c1cc3cc(Br)ccc3[nH]1)C2` [Compound C47, 5-bromoindol-2-yl 7-[(4-fluorophenyl)carbonyl]-2,7-diazaspiro[3.5]non-2-yl ketone] the figure was 100 to 500 nM.

For `O=C(c1ccc(F)cc1)N1CCC2(CC1)CN(C(=O)c1cc3ccc(Br)cc3[nH]1)C2` [Compound C57, 6-bromoindol-2-yl 7-[(4-fluorophenyl)carbonyl]-2,7-diazaspiro[3.5]non-2-yl ketone], the IC50 was 500 to 5000 nM. With `O=C(/C=C/c1ccc(Cl)c(Cl)c1)N1CC2(CCN(C(=O)c3ccc(C(F)(F)F)cc3)CC2)C1` [Compound C30, (2E)-3-(3,4-dichlorophenyl)-1-(7-{[4-(trifluoromethyl)phenyl]carbonyl}-2,7-diazaspiro[3.5]non-2-yl)prop-2-en-1-one] the figure was < 100 nM; with `COc1ccc(C(=O)N2CCC3(CC2)CN(C(=O)C#Cc2ccc(F)cc2F)C3)cc1` [Compound C97, 3-(2,4-difluorophenyl)-1-{7-[(4-methoxyphenyl)carbonyl]-2,7-diazaspiro[3.5]non-2-yl}prop-2-yn-1-one], 100 to 500 nM. Next, `O=C(c1ccc(-c2nnn[nH]2)cc1)N1CC2(CCN(C(=O)c3cc4cc(Cl)ccc4[nH]3)CC2)C1` [Compound C16, 5-chloroindol-2-yl 2-[(4-(1H-1,2,3,4-tetraazol-5-yl)phenyl)carbonyl]-2,7-diazaspiro[3.5]non-7-yl ketone]: 500 to 5000 nM; `O=C(c1cc2cc(Br)ccc2[nH]1)N1CC2(CCN(Cc3ccc(C(F)(F)F)cc3)CC2)C1` [Compound C50, 5-bromoindol-2-yl 7-{[4-(trifluoromethyl)phenyl]methyl}-2,7-diazaspiro[3.5]non-2-yl ketone]: 500 to 5000 nM.

`O=C(C#Cc1ccc2c(c1)OCO2)N1CCC2(CC1)CN(C(=O)c1ccc(Cl)cc1)C2` [Compound C98, 3-(2H-benzo[3,4-d]1,3-dioxolen-5-yl)-1-{2-[(4-chlorophenyl)carbonyl]-2,7-diazaspiro[3.5]non-7-yl}prop-2-yn-1-one] gave an IC50 of 100 to 500 nM. The compound `O=C(C#Cc1ccc2c(c1)OCO2)N1CCC2(CC1)CN(C(=O)c1ccc(Br)cc1)C2` [Compound I1, 3-(2H-benzo[3,4-d]1,3-dioxolen-5-yl)-1-{2-[(4-bromophenyl)carbonyl]-2,7-diazaspiro[3.5]non-7-yl}prop-2-yn-1-one] showed an IC50 of 500 to 5000 nM.

Compound `O=C(/C=C/c1ccc(Br)cc1)N1CC2(CCN(Cc3cc(C(F)(F)F)cc(C(F)(F)F)c3)CC2)C1` [Compound C24, (2E)-1-(7-{[3,5-bis(trifluoromethyl)phenyl]methyl}-2,7-diazaspiro[3.5]non-2-yl)-3-(4-bromophenyl)prop-2-en-1-one] gave an IC50 of 100 to 500 nM. As to `O=C(/C=C/c1ccc(Br)cc1)N1CCC2(CC1)CN(C(=O)c1ccc(Cl)cc1)C2` [Compound L1, (2E)-3-(4-bromophenyl)-1-{2-[(4-chlorophenyl)carbonyl]-2,7-diazaspiro[3.5]non-7-yl}prop-2-en-1-one], the IC50 is < 100 nM. As for `COc1ccc(C(=O)N2CCC3(CC2)CN(C(=O)C#Cc2ccc(Cl)cc2)C3)cc1` [Compound C91, 3-(4-chlorophenyl)-1-{7-[(4-methoxyphenyl)carbonyl]-2,7-diazaspiro[3.5]non-2-yl}prop-2-yn-1-one], the 50% inhibitory concentration (IC50) was < 100 nM. With `O=C(/C=C/c1ccc(Cl)c(Cl)c1)N1CC2(CCN(Cc3ccc(C(F)(F)F)c(F)c3)CC2)C1` [Compound C34, (2E)-3-(3,4-dichlorophenyl)-1-(7-{[3-fluoro-4-(trifluoromethyl)phenyl]methyl}-2,7-diazaspiro[3.5]non-2-yl)prop-2-en-1-one] the figure was 100 to 500 nM.

For `O=C(C#Cc1ccc(Cl)cc1)N1CC2(CCN(Cc3ccc(F)cc3)CC2)C1` [Compound C81, 3-(4-chlorophenyl)-1-{7-[(4-fluorophenyl)methyl]-2,7-diazaspiro[3.5]non-2-yl}prop-2-yn-1-one], the 50% inhibitory concentration (IC50) was in the range of 100 to 500 nM. With `O=C(C#Cc1ccc(Br)cc1)N1CCC2(CC1)CN(Cc1ccc(Cl)cc1)C2` [Compound C69, 3-(4-bromophenyl)-1-{2-[(4-chlorophenyl)methyl]-2,7-diazaspiro[3.5]non-7-yl}prop-2-yn-1-one] the figure was < 100 nM; with `O=C(/C=C/c1ccc(Br)cc1)N1CCC2(CC1)CN(C(=O)c1ccccc1)C2` [Compound C7, (2E)-3-(4-bromophenyl)-1-[2-(phenylcarbonyl)-2,7-diazaspiro[3.5]non-7-yl]prop-2-en-1-one], < 100 nM.
